# Laboratory results published in patent publication US11529436B2, “Engineered three-dimensional skin tissues, arrays thereof, and methods of making the same” (Organovo, Inc., priority 2014, dated 2022).
# Legend:
# Type in all cases: cell-based, human
# [1] = system: bioprinted full thickness skin tissue; experiment: Lactate dehydrogenase (LDH) activity in media of bioprinted skin tissue, skin irritation test
# Text: Bio-ink was generated by a cellular mixture of 100% primary adult human dermal fibroblasts (HDFa) in 8% gelatin (NOVOGEL 2.0) at a concentration of 100 million cells per milliliter. The cell: gelatin ratio was altered to reduce the cellular density of the dermal sheet to better mimic dermal tissue in native skin. Three-dimensional bio-ink constructs were printed by continuous deposition using the NOVOGEN BIOPRINTER platform in a 4 mm×4 mm×0.5 mm base to create a dermal structure resembling a sheet. […] The transwell printing surface contained a polytetrafluoroethylene (PTFE) membrane coated with equimolar mixture of types I and III collagen (bovine) with pores 3 μm in size. Epidermal cell paste containing a mixture of 100% primary neonatal human epidermal keratinocytes (HEKn) was then printed on top of the dermal bio-ink. Cell paste was measured post print at 87.1% viable by trypan exclusion assay. Cell numbers in the deposited epidermal layer was estimated at 60,000 cells by cell counting on a Cell-O-Meter. Immediately following the print, constructs were placed at 4° C. for 10 minutes. Cold media was then added to the outer well of the transwell in a volume of 3 ml. The media used for subsequent growth and maintenance of the skin tissue was a 50:50 ratio of HDFa: HEKn media. The initial volume added was sufficient to submerge the structure. All subsequent media changes used warmed media (37° C.) added to the outer well of the transwell and not to the inner basket. Media was changed 48 hours later and reduced to a volume of 1.5 ml per well to bring the structure to an air-liquid interface (ALI). Media and subsequently changed 48 hours after that (day 4) at a volume of 1.5 ml. […] IL-1α production (R&D Systems) was analyzed in a colorimetric assays per manufacturer's protocol. Media was analyzed for lactate dehydrogenase as a marker for cytotoxicity. IL-1α production was assessed as a complementary endpoint to classic cytotoxicity testing to improve predictability of irritants. […] Viability was measured as fluorescence in the media by conversion of resazurin to resorufin. […]
# [2] = system: bioprinted full thickness skin tissue; experiment: IL-1α production in media of bioprinted skin tissue (colorimetric assay), skin irritation test
# Text: Bio-ink was generated by a cellular mixture of 100% primary adult human dermal fibroblasts (HDFa) in 8% gelatin (NOVOGEL 2.0) at a concentration of 100 million cells per milliliter. The cell: gelatin ratio was altered to reduce the cellular density of the dermal sheet to better mimic dermal tissue in native skin. Three-dimensional bio-ink constructs were printed by continuous deposition using the NOVOGEN BIOPRINTER platform in a 4 mm×4 mm×0.5 mm base to create a dermal structure resembling a sheet. […] The transwell printing surface contained a polytetrafluoroethylene (PTFE) membrane coated with equimolar mixture of types I and III collagen (bovine) with pores 3 μm in size. Epidermal cell paste containing a mixture of 100% primary neonatal human epidermal keratinocytes (HEKn) was then printed on top of the dermal bio-ink. Cell paste was measured post print at 87.1% viable by trypan exclusion assay. Cell numbers in the deposited epidermal layer was estimated at 60,000 cells by cell counting on a Cell-O-Meter. Immediately following the print, constructs were placed at 4° C. for 10 minutes. Cold media was then added to the outer well of the transwell in a volume of 3 ml. The media used for subsequent growth and maintenance of the skin tissue was a 50:50 ratio of HDFa: HEKn media. The initial volume added was sufficient to submerge the structure. All subsequent media changes used warmed media (37° C.) added to the outer well of the transwell and not to the inner basket. Media was changed 48 hours later and reduced to a volume of 1.5 ml per well to bring the structure to an air-liquid interface (ALI). Media and subsequently changed 48 hours after that (day 4) at a volume of 1.5 ml. On day 5, media was changed and further reduced to 1 ml per well and subsequently changed daily. On day 10, skin tissues were subject to a skin irritation test method using 1% TRITON X-100. 1% TRITON X-100 is a known irritant and reference chemical currently used in other 3D skin models. Methods were based on OECD guidelines 439 and 431 for applying human skin models to in vitro skin irritation or corrosion, respectively. On day 10, conditioned media was saved (designated time=0) and 1 ml of fresh media was added to the outer well of the transwell. The printed skin tissue was then treated with 20 μl of PBS as a negative control or with 20 μl of 1% TRITON X-100 as a positive control and known irritant. Test substances were pipetted manually to the apical surface of the tissue. TRITON X-100 was diluted to a 1% aqueous solution in deionized water and sterile filtered through a 20 micron filter before use. […] Media was saved (designated time=1 hour). Samples were then washed extensively by PBS rinsing. […] The media was then changed at 24 hours and at 48 hours post treatment. Total media collected included time points=−48, 0, 1, 24, and 48 hours. IL-1α production (R&D Systems) was analyzed in a colorimetric assays per manufacturer's protocol. Media was analyzed for lactate dehydrogenase as a marker for cytotoxicity. IL-1α production was assessed as a complementary endpoint to classic cytotoxicity testing to improve predictability of irritants. Keratinocytes normally produce and release inflammatory cytokine IL-1α in response to chemical or physical stress. […] Viability was measured as fluorescence in the media by conversion of resazurin to resorufin. […]
# [3] = system: bioprinted full thickness skin tissue; experiment: Histological analysis of bioprinted skin tissue after irritant treatment (H&E, CK5/IVL, CK10, collagen 3, PCNA, TUNEL); settings: 1% TRITON X-100, 1 hour exposure
# Text: Bio-ink was generated by a cellular mixture of 100% primary adult human dermal fibroblasts (HDFa) in 8% gelatin (NOVOGEL 2.0) at a concentration of 100 million cells per milliliter. The cell: gelatin ratio was altered to reduce the cellular density of the dermal sheet to better mimic dermal tissue in native skin. Three-dimensional bio-ink constructs were printed by continuous deposition using the NOVOGEN BIOPRINTER platform in a 4 mm×4 mm×0.5 mm base to create a dermal structure resembling a sheet. One tissue construct was printed per transwell in a 6-well plate. The transwell printing surface contained a polytetrafluoroethylene (PTFE) membrane coated with equimolar mixture of types I and III collagen (bovine) with pores 3 μm in size. Epidermal cell paste containing a mixture of 100% primary neonatal human epidermal keratinocytes (HEKn) was then printed on top of the dermal bio-ink. Cell paste was measured post print at 87.1% viable by trypan exclusion assay. Cell numbers in the deposited epidermal layer was estimated at 60,000 cells by cell counting on a Cell-O-Meter. Immediately following the print, constructs were placed at 4° C. for 10 minutes. Cold media was then added to the outer well of the transwell in a volume of 3 ml. The media used for subsequent growth and maintenance of the skin tissue was a 50:50 ratio of HDFa: HEKn media. The initial volume added was sufficient to submerge the structure. All subsequent media changes used warmed media (37° C.) added to the outer well of the transwell and not to the inner basket. Media was changed 48 hours later and reduced to a volume of 1.5 ml per well to bring the structure to an air-liquid interface (ALI). Media and subsequently changed 48 hours after that (day 4) at a volume of 1.5 ml. On day 5, media was changed and further reduced to 1 ml per well and subsequently changed daily. On day 10, skin tissues were subject to a skin irritation test method using 1% TRITON X-100. 1% TRITON X-100 is a known irritant and reference chemical currently used in other 3D skin models. Methods were based on OECD guidelines 439 and 431 for applying human skin models to in vitro skin irritation or corrosion, respectively. On day 10, conditioned media was saved (designated time=0) and 1 ml of fresh media was added to the outer well of the transwell. The printed skin tissue was then treated with 20 μl of PBS as a negative control or with 20 μl of 1% TRITON X-100 as a positive control and known irritant. Test substances were pipetted manually to the apical surface of the tissue. TRITON X-100 was diluted to a 1% aqueous solution in deionized water and sterile filtered through a 20 micron filter before use. Samples were incubated for 30 minutes at 37° C. followed by 30 minutes at room temperature for a total of 60 minutes. Media was saved (designated time=1 hour). Samples were then washed extensively by PBS rinsing. Transwells were then placed in a new 6-well plate with fresh media (1 ml) added to the outer well then placed back into 37° C. overnight. The media was then changed at 24 hours and at 48 hours post treatment. Total media collected included time points=−48, 0, 1, 24, and 48 hours. IL-1α production (R&D Systems) was analyzed in a colorimetric assays per manufacturer's protocol. Media was analyzed for lactate dehydrogenase as a marker for cytotoxicity. IL-1α production was assessed as a complementary endpoint to classic cytotoxicity testing to improve predictability of irritants. Keratinocytes normally produce and release inflammatory cytokine IL-1α in response to chemical or physical stress. At 48 hours post treatment (day 12), tissues were either lysed for RNA extraction and subsequent qPCR analysis, or tested for viability by alamar blue assay then rinsed in PBS and fixed with 2% PFA for histological analysis. Alamar blue (Life Technologies) was added per manufacturer's instructions to media and incubated with tissue constructs (1 ml) at 37° C. for 3 hours. […]
# [4] = 48 hours post treatment (day 12)
substance,measurement,setting,value
TRITON X-100,induction in LDH activity compared to PBS control,"[1]; 1% TRITON X-100, 1 hour exposure, 6-well format, at 1 hour, 24 hours and 48 hours post treatment",roughly 2 fold
same,LDH activity higher than PBS,"[1]; 15 minute exposure, 5% SDS or 1% TRITON X-100, 24 well plate format, 42 hours post exposure",about 1.4 fold
same,IL-1α levels,"[2]; 1% TRITON X-100, 1 hour exposure, 24 hours post treatment",remained high
same,IL-1α levels,"[2]; 1% TRITON X-100, 1 hour exposure, 48 hours post treatment",returned to baseline
same,IL-1α activity in comparison to PBS control,"[2]; 1% TRITON X-100, 1 hour exposure, greatest difference 1 hour post treatment",increased
same,IL-1α production,"[2]; 15 minute exposure, 5% SDS or 1% TRITON X-100, 24 well plate format",induced
same,irritancy to bioprinted skin suggested by histology,[3],irritant
same,CK5 positive basal keratinocyte layer,[3]; [4],fragmented
same,Collagen 3 staining compared to the PBS control,[3]; [4],reduction in dermal fibroblast function
